# Results from ChEMBL document CHEMBL6114982, “Structural optimization and characterization of highly potent and selective STAT3 inhibitors for the treatment of triple negative breast cancer” (Eur J Med Chem, 2025).
# Calls of active or inactive are those of the source. The rule behind the calls is not given here.
# Experiments:
# MDA-MB-231 [1] = test: Induction of apoptosis in human MDA-MB-231 cells assessed as late apoptotic at 0.1 uM incubated for 48 hrs by Annexin V and PI staining based flow cytometry analysis (reference value: 2.71%); assay type: functional
# MDA-MB-231 [2] = test: Antitumor activity against human MDA-MB-231 cells xenografted in female nude BALB/c mouse model assessed as reduction in tumor volume at 10 mg/kg, ip administered every other day for 30 days (reference value: 1522.98 millimeter); assay type: functional; conditions: time 30 day
# MDA-MB-231 [3] = test: Inhibition of colony formation in human MDA-MB-231 cells measured after 14 days by soft agar plate cloning assay; assay type: functional, cell-based; conditions: time 14.0 day
# [4] = Toxicity in female BALB/c nude mouse assessed as effect on liver at 10 to 20 mg/kg, iv measured after 30 days by H and E staining based analysis; assay type: organism-based; conditions: in vivo, 720 h, dose 10-20 mg/kg, time 30 day
# MDA-MB-231 [5] = test: Induction of apoptosis in human MDA-MB-231 cells assessed as late apoptotic at 0.05 uM incubated for 48 hrs by Annexin V and PI staining based flow cytometry analysis (reference value: 2.71%); assay type: functional
# [6] = molecular target: T1, Signal transducer and activator of transcription 3 (Homo sapiens, UniProt P40763); test: Inhibition of STAT3 in human MDA-MB-231 cells assessed as upregulation of NDUFAB1 level; assay type: cell-based
# T1 sequence (P40763 whole entry): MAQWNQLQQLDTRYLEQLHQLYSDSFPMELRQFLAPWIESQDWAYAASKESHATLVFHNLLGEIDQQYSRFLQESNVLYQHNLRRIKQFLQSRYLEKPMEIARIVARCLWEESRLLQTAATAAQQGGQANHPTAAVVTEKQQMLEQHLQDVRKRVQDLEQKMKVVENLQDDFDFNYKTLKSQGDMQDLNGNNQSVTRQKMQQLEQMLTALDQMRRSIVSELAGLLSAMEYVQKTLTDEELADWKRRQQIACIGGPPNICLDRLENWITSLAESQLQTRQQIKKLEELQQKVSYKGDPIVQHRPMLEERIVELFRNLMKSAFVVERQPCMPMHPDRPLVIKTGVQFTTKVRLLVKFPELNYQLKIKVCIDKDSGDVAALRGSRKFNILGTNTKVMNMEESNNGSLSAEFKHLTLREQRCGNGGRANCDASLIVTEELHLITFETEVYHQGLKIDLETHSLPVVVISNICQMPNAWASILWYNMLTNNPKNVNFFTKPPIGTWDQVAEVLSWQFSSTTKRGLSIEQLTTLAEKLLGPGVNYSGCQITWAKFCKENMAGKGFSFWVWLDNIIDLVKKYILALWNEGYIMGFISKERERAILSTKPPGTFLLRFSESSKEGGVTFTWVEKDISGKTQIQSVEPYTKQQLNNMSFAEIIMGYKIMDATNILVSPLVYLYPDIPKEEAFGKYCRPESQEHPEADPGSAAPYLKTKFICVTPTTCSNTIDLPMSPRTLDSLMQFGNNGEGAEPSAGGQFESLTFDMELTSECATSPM
# MDA-MB-231 [7] = test: Antitumor activity against human MDA-MB-231 cells xenografted in female nude BALB/c mouse model assessed as reduction in tumor volume at 20 mg/kg, ip administered every other day for 30 days (reference value: 1522.98 millimeter); assay type: functional; conditions: time 30 day
# MDA-MB-231 [8] = test: Inhibition of cell invasion in human MDA-MB-231 cells assessed as decrease in number of invaded cells incubated for 24 hrs by crystal violet staining based inverted microscopic analysis; assay type: functional; conditions: dose 0.05-0.5 µM
# MDA-MB-231 [9] = test: Inhibition of cell migration in human MDA-MB-231 cells assessed as reduction in wound closure proportion at 0.05 to 0.5 uM incubated for 24 hrs by inverted microscopic analysis; assay type: functional, cell-based; conditions: dose 0.05-0.5 µM
# BT-549 [10] = test: Effect on STAT5 phosphorylation level in human BT-549 cells at 0.05 to 0.5 uM measured after 48 hrs by Western blot analysis; assay type: functional, cell-based; conditions: dose 0.05-0.5 µM
# [11] = Toxicity in female BALB/c nude mouse assessed as change in body weight at 10 to 20 mg/kg, iv measured for 30 days; assay type: organism-based; conditions: in vivo, 720 h, dose 10-20 mg/kg, time 30 day
# BT-549 [12] = test: Downregulation of Bcl-xl level in human BT-549 cells measured after 48 hrs by Western blot analysis; assay type: functional, cell-based; conditions: dose 0.05-0.5 µM
# [13] = molecular target: T2, Tyrosine-protein kinase JAK3 (Homo sapiens) (UniProt P52333); test: Inhibition of JAK3 (unknown origin) at upto 10 uM
# T2 sequence (whole entry): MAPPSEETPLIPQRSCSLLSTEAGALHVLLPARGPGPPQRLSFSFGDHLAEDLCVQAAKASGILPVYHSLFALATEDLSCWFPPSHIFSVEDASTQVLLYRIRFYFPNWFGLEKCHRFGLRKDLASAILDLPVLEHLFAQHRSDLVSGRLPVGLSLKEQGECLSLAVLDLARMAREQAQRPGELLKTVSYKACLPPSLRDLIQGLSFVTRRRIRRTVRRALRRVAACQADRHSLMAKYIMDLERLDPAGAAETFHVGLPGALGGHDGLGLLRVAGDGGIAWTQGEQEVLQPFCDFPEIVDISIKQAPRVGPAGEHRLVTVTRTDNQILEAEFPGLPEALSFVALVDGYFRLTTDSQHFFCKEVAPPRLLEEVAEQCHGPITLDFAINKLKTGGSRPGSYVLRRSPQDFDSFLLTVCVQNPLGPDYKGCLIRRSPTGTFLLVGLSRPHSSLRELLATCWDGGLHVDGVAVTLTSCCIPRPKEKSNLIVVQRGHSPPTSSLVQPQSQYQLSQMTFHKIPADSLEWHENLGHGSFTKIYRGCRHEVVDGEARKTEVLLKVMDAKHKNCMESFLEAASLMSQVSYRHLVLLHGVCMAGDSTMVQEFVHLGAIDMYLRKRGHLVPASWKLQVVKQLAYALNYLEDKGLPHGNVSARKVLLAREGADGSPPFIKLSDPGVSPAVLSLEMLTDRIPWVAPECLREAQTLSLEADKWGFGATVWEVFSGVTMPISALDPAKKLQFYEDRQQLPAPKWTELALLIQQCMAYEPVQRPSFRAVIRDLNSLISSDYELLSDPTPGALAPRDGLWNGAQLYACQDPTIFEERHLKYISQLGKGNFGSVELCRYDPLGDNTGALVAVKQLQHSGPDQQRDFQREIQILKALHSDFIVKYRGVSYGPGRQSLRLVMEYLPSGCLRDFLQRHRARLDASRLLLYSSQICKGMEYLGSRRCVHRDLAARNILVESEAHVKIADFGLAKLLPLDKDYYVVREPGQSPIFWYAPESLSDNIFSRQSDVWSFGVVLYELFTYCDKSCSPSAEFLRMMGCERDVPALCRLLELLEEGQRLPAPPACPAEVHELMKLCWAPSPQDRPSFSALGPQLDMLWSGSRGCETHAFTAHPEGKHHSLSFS
# BT-549 [14] = test: Inhibition of cell invasion in human BT-549 cells assessed as decrease in number of invaded cells incubated for 24 hrs by crystal violet staining based inverted microscopic analysis; assay type: functional; conditions: dose 0.05-0.5 µM
# MDA-MB-231 [15] = test: Effect on Akt phosphorylation level in human MDA-MB-231 cells at 0.05 to 0.5 uM measured after 48 hrs by Western blot analysis; assay type: functional, cell-based; conditions: dose 0.05-0.5 µM
# BT-549 [16] = test: Inhibition colony formation in human BT-549 cells harbouring STAT3 siRNA at 0.1 uM after 14 days by crystal violet staining based analysis; assay type: functional, cell-based; conditions: time 14.0 day
# MDA-MB-231 [17] = test: Downregulation of cyclin D1 level in human MDA-MB-231 cells measured after 48 hrs by Western blot analysis; assay type: functional, cell-based; conditions: dose 0.05-0.5 µM
# [18] = molecular target: T1, Signal transducer and activator of transcription 3; test: Inhibition of STAT3 phosphorylation in human MDA-MB-231 cells assessed as upregulation of HMOX1 expression level; assay type: cell-based
# [19] = molecular target: T1, Signal transducer and activator of transcription 3; test: Inhibition of STAT3 phosphorylation in human MDA-MB-231 cells assessed as downregulation of TAGLN expression level; assay type: cell-based
# [20] = molecular target: T1, Signal transducer and activator of transcription 3; test: Inhibition of STAT3 phosphorylation in human MDA-MB-231 cells assessed as downregulation of F5 level; assay type: cell-based
# MDA-MB-231 [21] = test: Antiproliferative activity against human MDA-MB-231 cells assessed as inhibition of cell growth incubated for 72 hrs by SRB method; assay type: functional, cell-based; conditions: MDA-MB-231, 72 h
# [22] = Half life in female BALB/c nude mouse administered as iv dose; assay type: ADME, organism-based; conditions: in vivo
# MDA-MB-231 [23] = test: Effect on STAT5 phosphorylation level in human MDA-MB-231 cells at 0.05 to 0.5 uM measured after 48 hrs by Western blot analysis; assay type: functional, cell-based; conditions: dose 0.05-0.5 µM
# [24] = molecular target: T1, Signal transducer and activator of transcription 3; test: Inhibition of STAT3 phosphorylation in human MDA-MB-231 cells assessed as downregulation of KRT1 expression level; assay type: cell-based
# BT-549 [25] = test: Effect on JAK1 phosphorylation level in human BT-549 cells at 0.05 to 0.5 uM measured after 48 hrs by Western blot analysis; assay type: functional, cell-based; conditions: dose 0.05-0.5 µM
# MDA-MB-231 [26] = test: Downregulation of CD44 expression in human MDA-MB-231 cells by Western blot analysis; assay type: functional, cell-based
smiles,measurement,setting,value
COc1cccc(C(=O)Nc2sc3c(c2C#N)CCN(C(=O)Nc2ccccc2OC)C3)c1,Activity,MDA-MB-231 [1],16.08%
same,tumor volume,MDA-MB-231 [2],762 mm³
same,inhibition,MDA-MB-231 [3],Active
same,Activity,[4],Non-toxic
same,Activity,MDA-MB-231 [5],12.78%
same,inhibition,[6],Active
same,tumor volume,MDA-MB-231 [7],656 mm³
same,inhibition,MDA-MB-231 [8],Dose-dependent-effect
same,inhibition,MDA-MB-231 [9],Active
same,Activity,BT-549 [10],inactive
same,Activity,[11],Toxic
same,Activity,BT-549 [12],Dose-dependent-effect
same,inhibition,[13],Active; Compound Showed Little Inhibitory Effect
same,inhibition,BT-549 [14],Dose-dependent-effect
same,Activity,MDA-MB-231 [15],inactive
same,inhibition,BT-549 [16],inactive
same,Activity,MDA-MB-231 [17],Dose-dependent-effect
same,inhibition,[18],Active
same,inhibition,[19],Active
same,inhibition,[20],Active
same,IC50,MDA-MB-231 [21],0.03 µM
same,half-life,[22],23 h
same,Activity,MDA-MB-231 [23],inactive
same,inhibition,[24],Active
same,Activity,BT-549 [25],inactive
same,Activity,MDA-MB-231 [26],Active
